{
  "source": "patent US9198419B2",
  "about": "“Use of pro-fungicides of UK-2A for control of black sigatoka” (Dow AgroSciences LLC, priority 2012, dated 2015)",
  "test_system": "Black Sigatoka on Bananas",
  "assay": "Assessment of disease in field plots: Black Sigatoka on banana plants, natural inoculation",
  "assay_type": "in vivo, Mycosphaerella fijiensis",
  "details": "for Disease Severity (AUDPC): 61 Day After Application, Area Under Disease Progression Curve, banana field plots; for Total Number of Functional Leaves: bananas",
  "description": "Aliquots of a 10% SC formulation of Compound I were diluted into water and mixed with Spraytex CT mineral oil (7 L/Ha) to achieve active ingredient application rates of 50, 100, 150, 200, 300 & 400 g a.i./Ha. These treatments were delivered to banana plants in field plots at an application volume of 23 L/Ha, using a Solo back-pack pump sprayer fitted with a Micronair AU8000 atomizer. A total of five applications were made at 10 day intervals. Experimental design was based on a randomized complete block, and 4 replications. Disease symptoms resulted from natural inoculation and epidemic development. Total experimental plot size was 96 m^2. Efficacy was determined by both percent visual infection and the number of functional leaves.",
  "data": [
    {"smiles": "COc1ccnc(C(=O)N[C@H]2COC(=O)[C@H](Cc3ccccc3)[C@@H](OC(=O)C(C)C)[C@H](C)OC2=O)c1OCOC(=O)C(C)C", "note": "[Compound I]", "values": [
      {"measurement": "Disease Severity (AUDPC)", "setting": "Compound I 50 ppm", "result": 29},
      {"measurement": "Disease Severity (AUDPC)", "setting": "Compound I 100 ppm", "result": 34},
      {"measurement": "Disease Severity (AUDPC)", "setting": "Compound I 150 ppm", "result": 29},
      {"measurement": "Disease Severity (AUDPC)", "setting": "Compound I 200 ppm", "result": 28},
      {"measurement": "Disease Severity (AUDPC)", "setting": "Compound I 300 ppm", "result": 35},
      {"measurement": "Total Number of Functional Leaves", "setting": "Rate 50 g ai/ha, Week 10", "result": 12.8},
      {"measurement": "Total Number of Functional Leaves", "setting": "Rate 50 g ai/ha, Week 13", "result": 13.0},
      {"measurement": "Total Number of Functional Leaves", "setting": "Rate 50 g ai/ha, Week 15", "result": 14.7},
      {"measurement": "Total Number of Functional Leaves", "setting": "Rate 100 g ai/ha, Week 10", "result": 9.3},
      {"measurement": "Total Number of Functional Leaves", "setting": "Rate 100 g ai/ha, Week 13", "result": 12.7},
      {"measurement": "Total Number of Functional Leaves", "setting": "Rate 100 g ai/ha, Week 15", "result": 14.1},
      {"measurement": "Total Number of Functional Leaves", "setting": "Rate 200 g ai/ha, Week 10", "result": 8.6},
      {"measurement": "Total Number of Functional Leaves", "setting": "Rate 200 g ai/ha, Week 13", "result": 12.3},
      {"measurement": "Total Number of Functional Leaves", "setting": "Rate 200 g ai/ha, Week 15", "result": 14.0},
      {"measurement": "Total Number of Functional Leaves", "setting": "Rate 400 g ai/ha, Week 10", "result": 8.7},
      {"measurement": "Total Number of Functional Leaves", "setting": "Rate 400 g ai/ha, Week 13", "result": 12.7},
      {"measurement": "Total Number of Functional Leaves", "setting": "Rate 400 g ai/ha, Week 15", "result": 14.0}
    ]}
  ]
}
